Measured values reported in paper PMC8305652, “Copper(II) Complexes Containing Natural Flavonoid Pomiferin Show Considerable In Vitro Cytotoxicity and Anti-inflammatory Effects” (International Journal of Molecular Sciences, 2021).

Columns and labels:
[1] = system: osteosarcoma (HOS); experiment: in vitro cytotoxicity, MTT assay; assay type: cell-based, human; details: mean ± SD, at least three independent experiments
[2] = system: colorectal adenocarcinoma (Caco-2); experiment: in vitro cytotoxicity, MTT assay; assay type: cell-based, human; details: at least three independent experiments
[3] = system: THP-1 human monocytic leukemia cell line; experiment: relative cell viability, WST-1; assay type: cell-based; details: 24 h, six independent experiments
Description: The THP-1 human monocytic leukemia cell line was purchased from the European Collection of Cell Cultures (ECACC, Salisbury, UK). Cells were cultured in an RPMI 1640 medium containing stabilized 2 mM L-glutamine (Biosera, Nuaille, France) supplemented with the mixture of antibiotics [100 U/mL penicillin and […] (Biosera, Nuaille, France)], and 10% foetal bovine serum (FBS) (HyClone, Marlborough, MA, USA). The cells were kept in an incubator at 37 °C in an atmosphere of air containing 5% CO2 and 100% humidity.
The relative cell viability of floating monocytes THP-1 were determined after 24 h incubation in a serum-free medium with compounds 1–5 dissolved in N,N-dimethylformamide (DMF) at increasing concentrations (20–0.125 µM) by the cell proliferation reagent WST-1 (Roche, Basel, Switzerland) according to the manufacturer’s manual, as we described previously. The IC50 values were calculated from resultant viability curves by four-parameter logistic (4PL) analysis.

[4] = system: primary culture of human hepatocytes (Hep); experiment: toxicity against primary culture of human hepatocytes; assay type: cell-based; details: tested range 0.1–100 μM
[5] = system: A2780 cells; experiment: cell cycle analysis by flow cytometry; assay type: cell-based, human; details: A2780, 15 µM, 24 h
Description: Human ovarian cancer cell line A2780 (Sigma, Darmstadt, Germany) were used for this study. Cells were cultivated at 37 °C under a 5% CO2 atmosphere in an RPMI 1640 medium (Sigma Aldrich, Darmstadt, Germany) supplemented with (the final concentrations in medium): L-glutamine (2 mM), fetal bovine serum (FBS, 10%) and PenStrep (5 U penicillin, 50 µg streptomycin/mL).
After 24 h, the cells were washed once with PBS (0.1 M, pH 7.4) and cell cycle analysis was performed according to the protocol of BD Cycletest^TM Plus DNA kit (Becton Dickinson, Franklin Lakes, NJ, USA). Measurements were performed using BD FACSVerse flow cytometer (Becton Dickinson, Franklin Lakes, NJ, USA) in 3 independent experiments, each done in duplicate, while at least 5 × 10^3 events were recorded for each sample.

[6] = system: A2780 cells; experiment: Annexin V/propidium iodide cell death assay, flow cytometry; assay type: cell-based, human; details: 24 h; for Annexin V +/PI + cells (late apoptotic/secondary necrotic) / Annexin V +/PI − cells (early apoptotic): A2780, 15 µM, mean of three experiments
Description: Both methods were performed according to the manufacturers’ protocols with 1 modification in the caspase induction assay, which was the use of the CellEvent^TM Caspase-3/7 Green Detection Reagent only for detection of Caspase-3/7 activation. […] After 24 h, the cells were washed once with PBS (0.1 M, pH 7.4), detached with trypsin (0.25% in ethylenediaminetetraacetic acid (EDTA), Sigma-Aldrich), resuspended in 500 µL of the culture medium and divided into 2 separate tubes, the first for apoptosis assay and the second one for caspase activation analysis. After staining with appropriate dyes, samples were analyzed on a BD FACSVerse flow cytometer (Becton Dickinson, Franklin Lakes, NJ, USA) in 3 separate experiments, while at least 10^4 events were recorded for each sample prepared in duplicate.

[7] = system: NF-κB/AP-1 in THP-1-XBlue-MD2-CD14 cells; experiment: LPS-stimulated NF-κB/AP-1 activity, SEAP reporter; assay type: cell-based, human; details: read 24 h after LPS; for inhibition of LPS-stimulated NF-κB/AP-1 activation: complexes applied at 200 nM and 50 nM, 1 h pre-treatment
Description: The activity of transcription factors NF-κB/AP-1 was evaluated using the THP-1-XBlue^TM-MD2-CD14 cell line [obtained from Invivogen (San Diego, CA, USA)], expressing an NF-κB/AP-1-inducible secreted embryonic alkaline phosphatase (SEAP) reporter gene, as was described previously. The complexes 1–5 were applied to the cells at the concentrations of 200 nM and 50 nM, pomiferin (at 200 nM), and a reference drug prednisone at 1 μM, respectively. Lipopolysaccharide (LPS) from E. coli 0111:B4 (Sigma-Aldrich) dissolved in PBS was used to trigger an inflammation-like reaction. The activity of the SEAP was determined by Quanti-Blue^TM reagent (Invivogen, San Diego, CA, USA) according to the manufacturer’s instructions 24 h after lipopolysaccharide stimulation. The activity of NF-κB/AP-1 was determined spectrophotometrically using the FLUOstar Omega microplate reader (BMG Labtech, Ortenberg, Germany) at 655 nm and compared with that of the vehicle.

[8] = system: TNF-α in differentiated THP-1 macrophages; experiment: TNF-α secretion, ELISA; assay type: cell-based, human; details: 200 nM, 1 h pre-treatment, LPS 1 µg/mL, 24 h
Description: Differentiated THP-1 macrophages (see above) were pre-treated with either 200 nM solutions of the tested complexes, or 200 nM solution of prednisone dissolved in 0.1% DMF or the vehicle (0.1% (v/v) DMF solution) for 1 h, as described previously. The concentration of TNF-α was measured using a Human TNF-α ELISA Kit (Diaclone, Besançon, France), according to the manufacturer’s manual. Each experiment was conducted in triplicate.

[9] = system: THP-1 cells; experiment: intracellular production of reactive oxygen species, DCFH2-DA; assay type: cell-based, human; details: THP-1, 200 nM; for increase of total ROS levels: 1.5 h experiment; for ROS production, long term: 23.5 h, pyocyanin 100 μM as radical-forming control
Description: THP-1 cells were used for the determination of the potential of tested compounds to initiate the intracellular ROS production, as was described previously with some minor modifications. Cells in serum-free RPMI 1640 medium without phenol red were seeded into black 96-well plates (5 × 10^4 cells/100 µL/well). After 2 h of incubation, the cells were treated with copper(II) complexes 1–5 at a concentration of 200 nM, and pyocyanin at a final concentration of 100 μM was added into control group to trigger production of reactive oxygen species (ROS), respectively. After the incubation at 37 °C for either 1.5 h or 23.5 h, dichlorofluorescin diacetate (DCFH2-DA) (5 μg/mL) was added and cells were kept under the same conditions hereafter. Thirty minutes later, fluorometric measurement of the fluorescent product DCF was conducted using a Tecan Infinite F200 microplate reader (Tecan, Männedorf, Switzerland) with λ(ex./em.) = 485/520 nm.

[10] = system: pUC19 plasmid DNA; experiment: nuclease-like activity, plasmid DNA cleavage; assay type: biochemical; details: for plasmid DNA nicked to OC-form: 10 µM; for cleavage of plasmid DNA: 300 µM; for DNA cleavage in the presence of ROS scavengers (KI, NaN3, DMSO): 0.66 mM H2O2, scavengers equimolar to complex; for effectivity of plasmid DNA cleavage with H2O2: order 2 ≈ 4 > 1
[11] = water-containing medium (10% DMF), 37 °C, 1 h

Compound	IC50 [1]	IC50 ([2]; mean ± SD)	IC50 ([3]; serum-free medium)	IC50 [4]	Annexin V +/PI + cells (late apoptotic/secondary necrotic) [6]	Annexin V +/PI − cells (early apoptotic) [6]	inhibition of LPS-stimulated NF-κB/AP-1 activation [7]	secretion of TNF-α [8]	increase of total ROS levels [9]	ROS production, long term [9]	plasmid DNA nicked to OC-form [10, 11]	cleavage of plasmid DNA [10, 11]	DNA cleavage in the presence of ROS scavengers (KI, NaN3, DMSO) [10]	effectivity of plasmid DNA cleavage with H2O2 ([10]; 0.66 mM H2O2)	effect on LPS-stimulated NF-κB/AP-1 activity at 50 nM [7]	also measured
CC(C)=CCc1c2c(c3occ(-c4ccc(O)c(O)c4)c(=O)c3c1[O-])C=CC(C)(C)O2.Cc1ccnc(-c2cc(C)ccn2)c1.O.O.O=[N+]([O-])[O-].[Cu+2] [Complex 2, (3-(3,4-dihydroxyphenyl)-8,8-dimethyl-6-(3-methylbut-2-en-1-yl)-4H,8H-benzo[1,2-b:3,4-b′]dipyran-4-one-5-olato-κ^2O4:O5)(4,4′-dimethyl-2,2′-bipyridine–κ^2N:N)copper(II) nitrate dihydrate]	21.1 ± 1.6 µM	5.1 ± 1.6 µM	7.9 ± 1.1 µM	> 100 µM	19.8 ± 0.7%	9.2 ± 0.8%	able to inhibit	decreased its production	55%	pro-oxidant effect almost diminished	ca. 30%	cleave the DNA completely to small fragments	not affected by the addition of the ROS scavengers	comparable with the effectivity of copper sulphate pentahydrate	–	cells in G2/M phase ([5]; control 20.1 ± 0.4%): 21.9 ± 0.8%
CC(C)=CCc1c2c(c3occ(-c4ccc(O)c(O)c4)c(=O)c3c1[O-])C=CC(C)(C)O2.CO.O=[N+]([O-])[O-].[Cu+2].c1ccc(-c2ccnc3c2ccc2c(-c4ccccc4)ccnc23)cc1 [Complex 4, (3-(3,4-dihydroxyphenyl)-8,8-dimethyl-6-(3-methylbut-2-en-1-yl)-4H,8H-benzo[1,2-b:3,4-b′]dipyran-4-one-5-olato-κ^2O4:O5)(4,7-diphenyl-1,10-phenanthroline–κ^2N:N)copper(II) nitrate methanol solvate]	–	22.9 ± 12.9 µM	3.3 ± 1.2 µM	> 100 µM	93.3 ± 2.9%	–	able to inhibit	did not affect the TNF-α synthesis	87%	pro-oxidant effect almost diminished	ca. 30%	cleave the DNA completely to small fragments	not affected by the addition of the ROS scavengers	comparable with the effectivity of copper sulphate pentahydrate	–	cells in G0/G1 phase ([5]; control 58.4 ± 0.5%): 62.1 ± 1.2%
CC(C)=CCc1c2c(c3occ(-c4ccc(O)c(O)c4)c(=O)c3c1O)C=CC(C)(C)O2 [pomiferin, 3-(3,4-dihydroxyphenyl)-5-hydroxy-8,8-dimethyl-6-(3-methylbut-2-ene-1-yl)-4H,8H-benzo[1,2-b:3,4-b′]dipyran-4-one]	–	–	–	–	49.0 ± 1.9%	10.0 ± 0.1%	–	–	–	did not increase the amount of ROS	–	–	–	–	slightly increased	IC50 ([1]; Homo sapiens): 20.7 ± 0.5 µM; IC50 ([2]; Homo sapiens, Caco-2, mean ± SD): 19.8 ± 2.4 µM; IC50 ([3]; Homo sapiens, THP-1, serum-free medium): > 10 µM; IC50 ([4]; Hepatocyte): > 50 µM; cells in the S phase of the cell cycle ([5]; untreated control 21.4 ± 0.8%): 26 ± 0.9%; viability at 15 µM ([6]; Homo sapiens, A2780, 15 μM, Figure 3, one out of three independent experiments, read-out: Annexin - / PI - (viable cells)): 37.1%; ROS production, short term ([9]; 1.5 h): did not increase the amount of ROS; lowering of the portion of OC-form formed after addition of hydrogen peroxide ([10]; 0.66 mM H2O2): ca. 20%; effect on supercoiled CCC-form of plasmid DNA [10, 11]: did not affect
(3-(3,4-dihydroxyphenyl)-8,8-dimethyl-6-(3-methylbut-2-en-1-yl)-4H,8H-benzo[1,2-b:3,4-b′]dipyran-4-one-5-olato-κ^2O4:O5)(dipyrido[3,2-a:2′,3′-c]phenazine–κ^2N4:N5)copper(II) nitrate methanol solvate [Complex 5]	2.4 ± 0.9 µM	–	3.1 ± 1.1 µM	> 100 µM	–	–	able to inhibit	decreased its production	–	elevated the ROS levels similarly as pyocyanin	–	–	–	–	active	–
